According to patent US20210069135A1, “THERAPEUTIC APPROACHES FOR TREATING EPILEPSY AND RELATED DISORDERS THROUGH REDUCTION OF EPILEPTOGENESIS” (PHARNEXT, priority 2012, published 2021):
“Also recorded” adds a separate entry of the source.

Assays:
neuronal cortical cells = assay: Glutamate toxicity assay on primary cortical neuron cells (neurite network, neurofilament immunostaining); format: cell-based, rat; details: for protection against glutamate toxicity, drug alone: torasemide or baclofen alone at the same doses as in the combination of FIG. 4 (400 nM, 2 μM), not significant
Procedure: Rat cortical neurons were cultured as described by Singer et al.. Briefly, pregnant female rats of 15 days gestation were killed by cervical dislocation (Rats Wistar) and the fetuses were removed from the uterus. The cortex was removed and placed in ice-cold medium of Leibovitz (L15) containing 2% of penicillin 10,000 U/mL and streptomycin 10 mg/mL and 1% of bovine serum albumin (BSA). Cortices were dissociated by trypsin for 20 min at 37° C. (0.05%). The reaction was stopped by the addition of Dulbecco's modified Eagle's medium (DMEM) containing DNasel grade II and 10% of foetal calf serum (FCS). Cells were then mechanically dissociated by 3 serial passages through a 10 mL pipette and centrifuged at 515×g for 10 min at +4° C. The supernatant was discarded and the pellet of cells was re-suspended in a defined culture medium consisting of Neurobasal supplemented with B27 (2%), L-glutamine (0.2 mM), 2% of PS solution and 10 ng/mL of BDNF. Viable cells were counted in a Neubauer cytometer using the trypan blue exclusion test. The cells were seeded at a density of 30 000 cells/well in 96 well-plates (wells were pre-coated with poly-L-lysine (10 μg/mL)) and were cultured at +37° C. in a humidified air (95%)/CO2 (5%) atmosphere.
After 12 days of neuron culture, drugs of the candidate combinations were solved in culture medium (+0.1% DMSO). Candidate drugs or drug combinations were then pre-incubated with neurons for 1 h before the glutamate injury. Glutamate was added for 20 min, to a final concentration of 40 μM in presence of candidate drugs or drug combinations. At the end of the incubation, medium was changed with medium with candidate combination but without glutamate. The culture was fixed 24 h after glutamate injury. MK801 (Dizocilpinehydrogen maleate, 77086-22-7-20 μM) was used as a positive control.
After permeabilization with saponin (Sigma), cells were blocked for 2 h with PBS containing 10% goat serum, then the cells were incubated with mouse monoclonal primary antibody against Neurofilament antibody (NF, Sigma).
Nuclei of cells were labeled by a fluorescent marker (Hoechst solution, SIGMA), and neurite network quantified. Six wells per condition were used to assess neuronal survival in 3 different cultures.

[1] = test system: PTZ-induced seizures in mice; assay: Pentylenetetrazol (PTZ)-induced seizure in mice model; format: in vivo, CD-1 mice
Procedure: Four to five week old male CD-1 mice of about 20 g (Janvier; Le Genest St Isle—France) were acclimatized to the environment for one week before the experiment.
They were group-housed (5-10 mice per cage) and maintained in a room with controlled temperature (21-22° C.) and a reversed light-dark cycle (12 h/12 h; lights on: 17:30-05:30; lights off: 05:30-17:30) with food and water available ad libitum.
PTZ-induced seizures in mice are an accepted in vivo model for the screening of antiepileptic drugs. PTZ is a blocker of the chloride ionophore complex to the GABAA receptor that has […] effects after repeated or single dose administration and also affects several neurotransmitter systems, such as the GABAergic and glutamatergic systems. Seizures were induced by administration of 100 mg/kg (subcutaneously) of PTZ. Levetiracetam (500 mg/kg), used as an internal positive control, was administered 60 min before the PTZ injection. Drugs of the invention were injected per os 2 h before PTZ administration. Acamprosate calcium (two molecules of acamprosate for a calcium ion) was tested at three different doses.
As already stated, 100 mg/kg PTZ were injected subcutaneously and the animals were then observed for 1 h after injection. The latencies for clonic seizures, tonic seizures, and death were monitored. Clonic seizures consist in rhythmic contractions of forelimbs and/or hindlimbs. Tonic seizures consist in rigid extension of the forelimbs and/or hindlimbs.
Analysis of variance (ANOVA) was performed on the result data. Fisher's Protected Least Significant Difference was used for pairwise comparisons. Statistical difference was assessed by Fisher's exact test. p values≤0.05 were considered significant.

[2] = cinacalcet 64 μM alone or mexiletine 25.6 μM alone, FIG. 1
[3] = levetiracetam 500 mg/kg 60 min before PTZ
[4] = baclofen 400 nM alone or acamprosate 1.6 nM alone, FIG. 3
[5] = sulfisoxazole 6.8 nM alone or torasemide 400 nM alone, FIG. 2
[6] = baclofen 2 μM alone or torasemide 400 nM alone, FIG. 4
[7] = high dose of acamprosate calcium
[8] = low dose of acamprosate calcium

Cc1cccc(C)c1OCC(C)N (stereo not shown) [mexiletine, Mexiletine]
effect on glutamate intoxication, drug alone (neuronal cortical cells; [2]): no protection at all; also recorded: no significant effect

CC[C@@H](C(N)=O)N1CCCC1=O [levetiracetam]
PTZ-induced death (in words) [1, 3]: reversed | PTZ-induced tonic seizure (in words) [1, 3]: reversed | time to clonic seizure (in words) ([1]; levetiracetam 500 mg/kg 60 min before PTZ 100 mg/kg s.c., FIG. 6): no significant effect

CC(=O)NCCCS(=O)(=O)O [acamprosate, Acamprosate]
effect on glutamate intoxication, drug alone (neuronal cortical cells; [4]): no statistically significant effect

Cc1noc(NS(=O)(=O)c2ccc(N)cc2)c1C [sulfisoxazole, Sulfisoxazole]
effect on glutamate intoxication, drug alone (neuronal cortical cells; [5]): no significant effect

C[C@@H](NCCCc1cccc(C(F)(F)F)c1)c1cccc2ccccc12 [cinacalcet, Cinacalcet]
effect on glutamate intoxication, drug alone (neuronal cortical cells; [2]): no protection at all; also recorded: no significant effect

NCC(CC(=O)O)c1ccc(Cl)cc1 (stereo not shown) [baclofen, Baclofen]
effect on glutamate intoxication, drug alone (neuronal cortical cells; [4]): no statistically significant effect | effect on glutamate intoxication, drug alone (neuronal cortical cells; [6]): no significant results; also recorded: no statistically significant effect | protection against glutamate toxicity, drug alone (neuronal cortical cells): 13%

CC(=O)NCCCS(=O)(=O)[O-].CC(=O)NCCCS(=O)(=O)[O-].[Ca+2] [acamprosate calcium]
latency to clonic seizure (in words) ([1]; acamprosate calcium 0.032 mg/kg, PTZ 100 mg/kg s.c., not shown): increase | latency to clonic seizure (in words) ([1]; acamprosate calcium 0.5 mg/kg per os 2 h before PTZ 100 mg/kg s.c., FIG. 6, p<0.05 vs vehicle): significant increase | latency to clonic seizure (in words) ([1]; acamprosate calcium 0.5 mg/kg per os 2 h before PTZ 100 mg/kg s.c., FIG. 6, p<0.05 vs vehicle, listed as Acamprosate calcium): efficient in increasing | reduction of prevalence of death [1, 7]: 38% | reduction of prevalence of mice with clonic seizure [1, 7]: 30% | reduction of prevalence of mice with tonic seizure [1, 7]: 38% | reduction of prevalence of death [1, 8]: 25% | reduction of prevalence of mice with clonic seizure [1, 8]: 20% | reduction of prevalence of mice with tonic seizure [1, 8]: 25%

Cc1cccc(Nc2ccncc2S(=O)(=O)NC(=O)NC(C)C)c1 [torasemide, Torasemide]
effect on glutamate intoxication, drug alone (neuronal cortical cells; [6]): no significant results; also recorded: no statistically significant effect | effect on glutamate intoxication, drug alone (neuronal cortical cells; [5]): no significant effect | protection against glutamate toxicity, drug alone (neuronal cortical cells): 8%
